Laboratory results as given in US11274314B2, “Herbicide safener combinations for acetyl co-enzyme a carboxylase herbicide resistant plants” (priority 2016, dated 2022).

Assays:
[1] = tested on: quizalofop tolerant mutant wheat accessions and non-mutant check; assay: Cross-resistance study within the ACCase herbicide mode of action, plant survival; assay type: in vivo, Triticum aestivum L.; settings: for survival: 28 DAT, clethodim 65, sethoxydim 264, fluazifop 361 g ai ha^−1, clethodim + 10.5 g ai ha^−1 quizalofop
Method: (§1) Dose response. A dose response study was completed with 11, 23, 46, 92, and 184 g quizalofop ha^−1. Seven DAT the tops of plants were cut off above the newest above-ground growing point. Binomial evaluation of plant survival was performed 28 DAT. Differences were uncovered in the whole plant sensitivity to increasing application rates of quizalofop. […] Resistant to susceptible ratios for this experiment ranged from 1.6 to 7.5 based on survival/death of the plants. Cross-resistance. A cross-resistance study was conducted within the ACCase herbicide mode of action using herbicides normally lethal to wheat. Clethodim, sethoxydim, and fluazifop were used at rates of 65, 264, and 361 g ai ha^−1, plus a treatment of clethodim and 10.5 g ai ha^−1 quizalofop. Seven DAT the tops of plants were cut off above the newest above-ground growing point. Binomial evaluation of plant survival was performed 28 DAT. Tolerance of quizalofop mutants to clethodim and sethoxydim was low (Table 1). The presence of any cross tolerance presents evidence that stacking resistant ACCase copies into a single plant could lead to resistance to additional herbicides. At this stage only a third of the total ACCase in the plant would have a mutation and contain tolerance to ACCase inhibitors if the mutation is target-site-based. DNA sequencing. DNA was collected from 26 quizalofop-tolerant phenotypes. Genome-specific primers were developed to amplify sequences from the A, B, and D ancestral wheat genomes. Sequenced results were compared to previously cloned non-mutant wheat sequences to determine any nucleotide substitutions present. […] This mutation on the A genome was found in eight accessions, on the B genome in nine accessions, and on the D genome in nine accessions. No accession had more than one of these SNPs. The mutation was a C to T substitution resulting in an alanine to valine change (FIG. 7). Each accession with higher survival than the background contained one of these SNPs. Based on the chromatograph patterns, the majority these SNPs are also believed to be homozygous in the plant. ACCase enzyme characterization. An in-vitro enzyme assay was conducted to observe ACCase in conjunction with quizalofop directly to determine if the presence of ACCase mutations decreases the ability of herbicides to inhibit ACCase activity. Four quizalofop concentrations of 0.1, 1, 10, and 100 μM were included in the assay along with a non-treated treatment. The experiment included four accessions which included a representative from the three mutations detected and non-mutagenized wheat. […] Calculated at the 125 level, the resistant to susceptible value for the A genome was 4.57, the B genome was 3.57 and the D genome was 10.86.

[2] = tested on: ACCase, A genome mutation (alanine to valine at position 2004); assay: In-vitro ACCase enzyme assay, A genome SNP accession; assay type: biochemical, wheat
Method: (§2) Dose response. A dose response study was completed with 11, 23, 46, 92, and 184 g quizalofop ha^−1. Seven DAT the tops of plants were cut off above the newest above-ground growing point. Binomial evaluation of plant survival was performed 28 DAT. Differences were uncovered in the whole plant sensitivity to increasing application rates of quizalofop. […] Resistant to susceptible ratios for this experiment ranged from 1.6 to 7.5 based on survival/death of the plants. Cross-resistance. A cross-resistance study was conducted within the ACCase herbicide mode of action using herbicides normally lethal to wheat. Clethodim, sethoxydim, and fluazifop were used at rates of 65, 264, and 361 g ai ha^−1, plus a treatment of clethodim and 10.5 g ai ha^−1 quizalofop. Seven DAT the tops of plants were cut off above the newest above-ground growing point. Binomial evaluation of plant survival was performed 28 DAT. Tolerance of quizalofop mutants to clethodim and sethoxydim was low (Table 1). […] The experiment included four accessions which included a representative from the three mutations detected and non-mutagenized wheat. […] Calculated at the 125 level, the resistant to susceptible value for the A genome was 4.57, the B genome was 3.57 and the D genome was 10.86.

[3] = tested on: ACCase, D genome mutation (alanine to valine at position 2004); assay: In-vitro ACCase enzyme assay, D genome SNP accession; assay type: biochemical, wheat; settings: for ACCase tolerance to quizalofop vs background: D genome SNP
Method: as §1, with “The mutation was a C to T substitution resulting in an alanine to valine change (FIG. 7). Each accession with higher survival than the background contained one of these SNPs. Based on the chromatograph patterns, the majority these SNPs are also believed to be homozygous in the plant. ACCase enzyme characterization. An in-vitro enzyme assay was conducted to observe ACCase in conjunction with quizalofop directly to determine if the presence of ACCase mutations decreases the ability of herbicides to inhibit ACCase activity. Four quizalofop concentrations of 0.1, 1, 10, and 100 μM were included in the assay along with a non-treated treatment.” left out

[4] = tested on: ACCase, B genome mutation (alanine to valine at position 2004); assay: In-vitro ACCase enzyme assay, B genome SNP accession; assay type: biochemical, wheat
Method: as §2

[5] = tested on: quizalofop-tolerant winter wheat accessions vs non-mutant Hatcher wheat; assay: Visual evaluation of quizalofop injury on quizalofop-tolerant accessions; assay type: in vivo, Triticum aestivum L.; settings: nearly all of 18 quizalofop-tolerant accessions; 21.05 g ai ha^−1; 28 DAT; compared with non-mutant Hatcher
Method: Plants were screened for visual injury, whole-plant quizalofop tolerance differences, cross-tolerance, and evaluated genotypically and enzymatically.
Visual evaluation. 18 quizalofop-tolerant accessions were treated with 21.05 g ai ha^−1 quizalofop, a discriminating dose based on previous studies. Plants were evaluated 28 days after treatment (DAT) for visible injury to quizalofop on a scale of 0 to 100%, with 0 being no injury and 100 being complete desiccation. […] The accessions had few completely dead plants, with the exception of the one accession not different than the background.

[6] = tested on: ACCase of non-mutagenized winter wheat; assay: In-vitro ACCase enzyme assay, non-mutagenized wheat; assay type: biochemical; settings: non-mutagenized winter wheat vs mutant accessions; 0.1-100 μM
Method: as §2

[7] = tested on: single-gene (AF28, AF26, AF10) and two-gene (AB17, AB157, BD4, AD91) wheat lines; assay: Field crop safety trial with and without safener
Method: During the 2014-2015 growing season, a field crop safety trial was performed to assess these lines for relative levels of resistance and performance under two application timings, applied with and without the safener cloquintocet-mexyl.
Determine relative levels of resistance between two-gene lines and single-gene lines. Determine which application timing (early or late spring) provided the highest crop safety.
One quizalofop susceptible line (Hatcher), four two-gene breeding lines (CO14A006 [AB17], CO14A041[AB157], CO14A075 [BD4], CO14A065 [AD91) and three one-gene parent lines (AF28, AF26, and AF10) were compared. A split-split plot design was used in which quizalofop p-ethyl was applied at 92.5 g ai ha^−1 with 1% MSO corresponding to the highest likely label application rate on March 31st at the tillering growth stage, and on May 2nd at the jointing growth stage. Cloquintocet safener (10 g ai/ha) was included in the split-split plot design. In the analysis, visual injury ratings and height were assessed one month before harvest, and grain yield in grams per plot was also used as a response factor. The SAS statistical package and proc mixed were used for analysis with a tukey-adjusted p-value of 0.05 as the cutoff value. The analysis was sliced by the cloquintocet factor, and comparisons of timing were made within lines.

[8] = tested on: single copy varieties AF28-A, AF26-B, AF10-D; assay: Safener potentiation of ACCase herbicide resistance in single copy wheat varieties; assay type: in vivo; settings: safener combined with ACCase herbicide; single copy varieties vs multiple copy or multiple genome lines

`CCSC(C)CC1CC(=O)C(/C(CC)=N/OC/C=C/Cl)=C(O)C1` (centres unmarked) [Clethodim, (E,E)-(.+−.)-2-[1-[[(3-chloro-2-propenyl)oxy]imino]propyl]-5-[2-(ethylth-io)propyl]-3-hydroxy-2-cyclohexen-1-one] gave a survival ([1]; Accession 0 (non-mutant check)) of 0%, a survival ([1]; Accession 1) of 10% and a survival ([1]; Accession 2) of 0%. It also gave a survival ([1]; Accession 3) of 0%, a survival ([1]; Accession 4) of 0% and a survival ([1]; Accession 5) of 0%. For the same compound, the survival ([1]; Accession 6) was 0%, the survival ([1]; Accession 7) was 0% and the survival ([1]; Accession 8) was 25%. For the same compound, the survival ([1]; Accession 9) was 17%, the survival ([1]; Accession 10) was 0% and the survival ([1]; Accession 11) was 0%. It also gave a survival ([1]; Accession 12) of 17%, a survival ([1]; Accession 13) of 0% and a survival ([1]; Accession 14) of 0%. For the same compound, the survival ([1]; Accession 15) was 0%, the survival ([1]; Accession 16) was 0% and the survival ([1]; Accession 17) was 0%.
In the case of `CC(Oc1ccc(Oc2cnc3cc(Cl)ccc3n2)cc1)C(=O)O` (centres unmarked) [quizalofop, (.+−.)-2-[4-[(6-chloro-2-quinoxalinyl)-oxy]phenoxy]propanoic acid], the “ACCase tolerance to quizalofop vs background” value ([2]; A genome SNP, 100 μM quizalofop) is reported as “higher than background tolerance”, the “resistant to susceptible value, calculated at the 125 level” value (“resistant … calculated at the 125 level” for short) ([2]; A genome, vs non-mutagenized wheat) is reported as 4.57 and the “ACCase tolerance to quizalofop vs background” value ([3]; 10 μM quizalofop) is reported as “higher than background levels of tolerance”. For the same compound, the “ACCase tolerance to quizalofop vs background” value ([3]; 100 μM quizalofop) was “higher than background tolerance”, the “resistant … calculated at the 125 level” value ([3]; D genome, vs non-mutagenized wheat) was 10.86 and the “ACCase tolerance to quizalofop vs background” value ([4]; B genome SNP, 10 μM quizalofop) was “higher than background levels of tolerance”. For the same compound, the “resistant … calculated at the 125 level” value ([4]; B genome, vs non-mutagenized wheat) was 3.57, the “visible injury to quizalofop on a scale of 0 to 100%” value [5] was “more tolerant to quizalofop than non-mutant Hatcher wheat” and the “ACCase sensitivity to quizalofop” value [6] was “greater sensitivity”.
`CCOC(=O)[C@@H](C)Oc1ccc(Oc2cnc3cc(Cl)ccc3n2)cc1` [quizalofop p-ethyl] was tested, and the “crop injury (reduced height, reduced yield, or increased injury rating)” value ([7]; May (jointing) compared to March (tillering) treatment timing) was “consistently higher crop injury”, the crop safety ([7]; all two-gene lines, 92.5 g ai ha^−1, no safener, vs single-gene lines) was “much higher levels of crop safety” and the “crop injury compared to the untreated control” value ([7]; single-gene line AF28, 92.5 g ai ha^−1, no safener) was “only showed injury with the May treatment timing”. The “crop injury compared to the untreated control” value ([7]; single-gene lines, 92.5 g ai ha^−1 with 1% MSO, no safener, March and May timings) was “significant injury”, the crop injury ([7]; two-gene line AD91, 92.5 g ai ha^−1, with or without safener, March or May) was “no crop injury for any treatment combination” and the crop injury ([7]; two-gene lines AB157 and AB17, 92.5 g ai ha^−1, no safener) was “crop injury in the May treatment timing”.
Work on `CC(Oc1ccc(Oc2ccc(C(F)(F)F)cn2)cc1)C(=O)O` (centres unmarked) [Fluazifop, (.+−.)-2-[4-[[5-(trifluoromethyl)-2-pyridinyl]oxy]phenoxy]propanoic acid] yielded a survival ([1]; Accession 0 (non-mutant check)) of 0%, a survival ([1]; Accession 1) of 0% and a survival ([1]; Accession 2) of 0%. It also gave a survival ([1]; Accession 3) of 0%, a survival ([1]; Accession 4) of 0% and a survival ([1]; Accession 5) of 0%. The survival ([1]; Accession 6) was 0%, the survival ([1]; Accession 7) was 0% and the survival ([1]; Accession 8) was 0%. The survival ([1]; Accession 9) was 0%, the survival ([1]; Accession 10) was 0% and the survival ([1]; Accession 11) was 0%. It also gave a survival ([1]; Accession 12) of 0%, a survival ([1]; Accession 13) of 0% and a survival ([1]; Accession 14) of 0%. The survival ([1]; Accession 15) was 0%, the survival ([1]; Accession 16) was 0% and the survival ([1]; Accession 17) was 0%.
With `O=C(O)COc1ccc(Cl)c2cccnc12` [cloquintocet acid] the “potentiation of resistance to acetyl-CoA carboxylase herbicides” value [8] was “just as effectively resistance as the multiple copy lines”.
In the case of `CCCC(=NOCC)C1=C(O)CC(CC(C)SCC)CC1=O` (centres unmarked) [Sethoxydin, 2-[1-(ethoxyimino)-butyl]-5-[2-(ethylthio)propyl]-3-hydroxy-2-cylohexen-1-one], the survival ([1]; Accession 0 (non-mutant check)) is reported as 0%, the survival ([1]; Accession 1) is reported as 0% and the survival ([1]; Accession 2) is reported as 0%. For the same compound, the survival ([1]; Accession 3) was 0%, the survival ([1]; Accession 4) was 0% and the survival ([1]; Accession 5) was 0%. For the same compound, the survival ([1]; Accession 6) was 0%, the survival ([1]; Accession 7) was 0% and the survival ([1]; Accession 8) was 0%. It also gave a survival ([1]; Accession 9) of 0%, a survival ([1]; Accession 10) of 0% and a survival ([1]; Accession 11) of 8%. It also gave a survival ([1]; Accession 12) of 8%, a survival ([1]; Accession 13) of 0% and a survival ([1]; Accession 14) of 0%. For the same compound, the survival ([1]; Accession 15) was 0%, the survival ([1]; Accession 16) was 0% and the survival ([1]; Accession 17) was 0%. The “Tolerance of quizalofop mutants” value ([1]; summary of Table 1) was “low”.
